Experimental data from PubChem BioAssay AID463206 (Broad Institute, 2010).
Calls of active or inactive are those of the source.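 Rule for the calls: active = caspase luminescence falls with dose and the half-maximal concentration AC50 from the fitted curve is at or below a set limit; inconclusive = flat fit at 30 to 70% signal loss, or invalid fit; inactive = AC50 above the limit, or signal rises instead.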

System: INS-1E cytokine-induced caspase-3/7, Caspase-Glo luminescence, 48 h
Test: inhibitors of cytokine-induced caspase-3/7 activity, dose response, orthogonal assay for beta-cell apoptosis protection project, INS-1E rat cells, luminescence (AID 463206)

Row | SMILES | AC50
1 | CCN(CC)S(=O)(=O)c1ccc(N2CCN(c3ccccc3OC)CC2)c(N)c1 | > 26 µM (inactive)
2 | N#CC1=C(N)Oc2c(ccc3cccnc23)C1c1ccccc1 (configuration not stated) | > 12 µM (inactive)
3 | Clc1ccc(C[n+]2c(-c3ccccc3)cc(-c3ccccc3)cc2-c2ccccc2)cc1 | > 12 µM (inactive)
4 | Cc1cccc2sc(NNC(=O)c3ccc(S(=O)(=O)N4CC(C)CC(C)C4)cc3)nc12 (configuration not stated) | > 26 µM (inactive)
5 | CC(C)(C)c1nnc(N/N=C/c2cc(Br)ccc2O)n(N)c1=O | > 26 µM (inactive)
6 | COC(=O)c1ccccc1NC(=O)c1nc(S(=O)(=O)Cc2ccccc2)ncc1Cl | > 26 µM (inactive)
7 | O=C(NNc1ccccc1Br)C(O)(c1cccc(C(F)(F)F)c1)c1cccc(C(F)(F)F)c1 | > 26 µM (inactive)
8 | O=[N+]([O-])c1cccnc1N/N=C/c1ccccc1O | > 26 µM (inactive)
9 | CCCCNC1=CC(=O)C(=O)c2ccccc21 | > 26 µM (inactive)
10 | c1ccc(CNc2c(-c3cccc(SC4CCCCC4)c3)nc3ccccn23)cc1 | > 26 µM (inactive)
11 | COc1cc(NC(=O)c2ccc([N+](=O)[O-])o2)ccc1NC(=O)c1cccs1 | > 26 µM (inactive)
12 | COc1ccccc1NC1=C(N2CCCCC2)C(=O)c2ccccc2C1=O | > 26 µM (inactive)
13 | O=C(C#Cc1ccccc1)c1ccco1 | > 26 µM (inactive)
14 | Cc1cc(N2CCOCC2)nc(N)n1 | > 26 µM (inactive)
15 | CCN(c1ccccc1)S(=O)(=O)c1ccc(C(=O)NC2CCN(Cc3ccccc3)CC2)cc1 | > 26 µM (inactive)
16 | CCSCCc1nnc(NC(=O)Nc2cccc(C(F)(F)F)c2)s1 | > 26 µM (inactive)
17 | CC(=O)N1CCCc2cc(S(=O)(=O)N3CCCC(C(=O)N4CCN(c5cccc(Cl)c5)CC4)C3)ccc21 (configuration not stated) | > 26 µM (inactive)
18 | CCOC(=O)c1cnc(-n2nc(C)cc2C)nc1NNc1cc(C)nc(-c2ccccc2)n1 | > 26 µM (inactive)
19 | O=C(C(Cl)Cl)N1c2ccccc2OCC1c1ccccc1 (configuration not stated) | > 26 µM (inactive)
20 | CC(=O)Nc1sc2c(c1-c1nc3ccccc3s1)CN(C(C)C)CC2 | > 26 µM (inactive)
21 | Cc1ccccc1NC(=O)/C=C/c1ccc([N+](=O)[O-])s1 | > 26 µM (inactive)
22 | Cc1cc(OCc2nc(-c3ccc(NC(=O)c4cccnc4)cc3)no2)ccc1Cl | > 26 µM (inactive)
23 | O=C(OCCOc1cccc(Cl)c1)c1cc(S(=O)(=O)N2CCCCC2)ccc1N1CCOCC1 | > 26 µM (inactive)
24 | COc1ccc(Cn2c(SCc3cc(C)ccc3C)nc3cc(OC)c(OC)cc3c2=N)cc1 | > 26 µM (inactive)

Row | SMILES | AC50
25 | Cc1cccc(OCc2n(CC(=O)OC3CC(C)CCC3C(C)C)c3ccccc3[n+]2C)c1 (configuration not stated) | > 26 µM (inactive)
26 | CCC(=O)NC(c1cc(Cl)c2cccnc2c1O)C1CC1 (configuration not stated) | > 26 µM (inactive)
27 | CCC(C)Nc1nc(-c2ccccn2)nc2ccccc12 (configuration not stated) | > 26 µM (inactive)
28 | OC(c1cc(-c2ccc(C(F)(F)F)cc2)nc(C(F)(F)F)c1)C1CCCCN1 (configuration not stated) | > 26 µM (inactive)
29 | O=S(=O)(c1ccc2c(c1)OCCO2)N1CCN(c2ncnc3sccc23)CC1 | > 26 µM (inactive)
30 | Nc1nonc1-n1nnc(C(=O)N/N=C/c2cc(Cl)ccc2O)c1CN1CCCCCC1 | > 26 µM (inactive)
31 | O=[N+]([O-])c1ccccc1-c1cc(-c2ccccc2)cc(-c2ccccc2)[n+]1Cc1ccccc1Cl | > 26 µM (inactive)
32 | Cc1ccc(S(=O)(=O)N2CCCCC2c2cccnc2)c(C)c1C (configuration not stated) | > 26 µM (inactive)
33 | CCCCCCc1cc2cc(-c3nnc(-c4ccccc4)o3)c(=O)oc2cc1O | > 26 µM (inactive)
34 | COc1cccc(CN(C)C(=O)c2cc(COc3ccc4ncccc4c3)on2)c1 | > 26 µM (inactive)
35 | Clc1ccc(SCc2cc(N3CCOCC3)nc(-c3ccccn3)n2)cc1 | > 26 µM (inactive)
36 | Cc1c(C(C)C)c(=O)n(-c2ccc(S(=O)(=O)NCc3ccccc3)cc2)n1C | > 26 µM (inactive)
37 | O=C(/C(=C/c1ccc(Cl)cc1)c1nc2ccccc2[nH]1)c1cccs1 | > 26 µM (inactive)
38 | O=S(=O)(c1ccc2nc(Nc3ccccc3)ccc2c1)N1CCCCC1 | > 26 µM (inactive)
39 | O=c1[nH]c(=O)n(Cc2ccco2)c2c1C(C(F)(F)F)(C(F)(F)F)N=C(c1ccc(F)cc1)N2 | > 26 µM (inactive)
40 | CCCCC(=O)NC(c1ccc(N(C)C)cc1)c1ccc2cccnc2c1O (configuration not stated) | > 26 µM (inactive)
41 | CC1(C)C(C=C(Cl)Cl)C1C(=O)Nc1ccc([N+](=O)[O-])cc1 (configuration not stated) | > 26 µM (inactive)
42 | O=C(Nc1cccc(C(F)(F)F)c1)Oc1ccc(Cl)c2cccnc12 | > 26 µM (inactive)
43 | CCN(CC)CCn1nc2c3c(cccc3c1=O)-c1ccccc1-2 | 8.24 µM
44 | CNC(=O)c1sc(N2N=C3/C(=C/c4ccccc4)CCCC3C2c2ccccc2)nc1C (configuration not stated) | > 26 µM (inactive)
45 | C/C(=N\Nc1nc(C)cc(-c2ccccc2)n1)c1ccc(O)cc1 | > 26 µM (inactive)
46 | Cc1ccccc1Cn1ccc(=NCc2ccccc2)cc1 | > 26 µM (inactive)
47 | O=C(Nc1ccc(Cl)c(Cl)c1)N1CCSC1c1ccco1 (configuration not stated) | > 26 µM (inactive)
